In the CheMixHub viscosity set:
± gives the uncertainty stated by the source.

Test: xn = mol fraction of the nth substance listed
Conditions: 100 kPa

NCCCN + OCCCO
viscosity [mPa·s]
Conditions | 293.15 K | 298.15 K | 303.15 K | 308.15 K | 313.15 K | 318.15 K
x2 = 0.0488 | 2.48 ± 0.042 | 2.207 ± 0.037 | 1.884 ± 0.032 | 1.707 ± 0.029 | 1.513 ± 0.025 | 1.454 ± 0.024
x2 = 0.0977 | 3.266 ± 0.055 | 2.887 ± 0.048 | 2.418 ± 0.041 | 2.17 ± 0.036 | 1.888 ± 0.032 | 1.837 ± 0.031
x2 = 0.1467 | 4.261 ± 0.071 | 3.71 ± 0.062 | 3.095 ± 0.052 | 2.765 ± 0.046 | 2.395 ± 0.04 | 2.296 ± 0.038
x2 = 0.1958 | 5.561 ± 0.093 | 5.116 ± 0.086 | 3.988 ± 0.067 | 3.529 ± 0.059 | 3.071 ± 0.051 | 2.924 ± 0.049
x2 = 0.2451 | 7.784 ± 0.13 | 6.598 ± 0.11 | 5.35 ± 0.09 | 4.639 ± 0.078 | 3.944 ± 0.066 | 3.722 ± 0.062
x2 = 0.2945 | 10.96 ± 0.18 | 9.104 ± 0.15 | 7.198 ± 0.12 | 6.175 ± 0.1 | 5.145 ± 0.086 | –
x2 = 0.3441 | 15.12 ± 0.25 | 12.35 ± 0.2 | 9.637 ± 0.16 | 8.272 ± 0.14 | 6.698 ± 0.11 | –
x2 = 0.3937 | 20.61 ± 0.34 | 16.58 ± 0.27 | 12.78 ± 0.21 | 10.64 ± 0.18 | 8.698 ± 0.14 | –
x2 = 0.4435 | 27.49 ± 0.45 | 22.54 ± 0.37 | 17.07 ± 0.28 | 14.02 ± 0.23 | 11.29 ± 0.19 | –
x2 = 0.4934 | 37.54 ± 0.62 | 29.33 ± 0.48 | 21.87 ± 0.36 | 17.83 ± 0.29 | 14.16 ± 0.23 | –
x2 = 0.5435 | 48.19 ± 0.79 | 37.19 ± 0.61 | 27.63 ± 0.45 | 22.21 ± 0.36 | 17.49 ± 0.29 | –
x2 = 0.5937 | 59.37 ± 0.96 | 45.53 ± 0.74 | 33.45 ± 0.55 | 26.75 ± 0.44 | 20.06 ± 0.33 | –
x2 = 0.644 | 68.67 ± 1.1 | 52.73 ± 0.84 | 38.69 ± 0.63 | 30.9 ± 0.5 | 24.13 ± 0.39 | –
x2 = 0.6945 | 75.47 ± 1.3 | 57.65 ± 0.92 | 42.48 ± 0.69 | 34 ± 0.55 | 26.62 ± 0.43 | –
x2 = 0.745 | 77.45 ± 1.3 | 60.06 ± 0.97 | 44.62 ± 0.73 | 35.77 ± 0.58 | 28.05 ± 0.46 | –
x2 = 0.7958 | 76.36 ± 1.3 | 59.6 ± 0.96 | 44.73 ± 0.73 | 36.13 ± 0.59 | 28.42 ± 0.46 | –
x2 = 0.8466 | 71.94 ± 1.2 | 56.84 ± 0.91 | 42.88 ± 0.7 | 34.89 ± 0.57 | 27.77 ± 0.45 | –
x2 = 0.8976 | 66.38 ± 1.1 | 52.57 ± 0.83 | 40 ± 0.65 | 32.8 ± 0.53 | 26.28 ± 0.43 | –
x2 = 0.9487 | 59.47 ± 0.96 | 47.41 ± 0.77 | 36.34 ± 0.59 | 30.05 ± 0.49 | 24.3 ± 0.4 | –
